Data on seven molecules can be found in US9422285B2, “Substituted pyrazolo[1,5-A]-pyridine-3-carboxamides and use thereof” (Bayer Pharma Aktiengesellschaft, priority 2014, dated 2016).

Data set [1] deals with T1, recombinant guanylate cyclase reporter cell line (Rattus norvegicus, UniProt P19686+P20595).
T1 construct: expressed in transfected cells
T1 sequence (P19686 1-690): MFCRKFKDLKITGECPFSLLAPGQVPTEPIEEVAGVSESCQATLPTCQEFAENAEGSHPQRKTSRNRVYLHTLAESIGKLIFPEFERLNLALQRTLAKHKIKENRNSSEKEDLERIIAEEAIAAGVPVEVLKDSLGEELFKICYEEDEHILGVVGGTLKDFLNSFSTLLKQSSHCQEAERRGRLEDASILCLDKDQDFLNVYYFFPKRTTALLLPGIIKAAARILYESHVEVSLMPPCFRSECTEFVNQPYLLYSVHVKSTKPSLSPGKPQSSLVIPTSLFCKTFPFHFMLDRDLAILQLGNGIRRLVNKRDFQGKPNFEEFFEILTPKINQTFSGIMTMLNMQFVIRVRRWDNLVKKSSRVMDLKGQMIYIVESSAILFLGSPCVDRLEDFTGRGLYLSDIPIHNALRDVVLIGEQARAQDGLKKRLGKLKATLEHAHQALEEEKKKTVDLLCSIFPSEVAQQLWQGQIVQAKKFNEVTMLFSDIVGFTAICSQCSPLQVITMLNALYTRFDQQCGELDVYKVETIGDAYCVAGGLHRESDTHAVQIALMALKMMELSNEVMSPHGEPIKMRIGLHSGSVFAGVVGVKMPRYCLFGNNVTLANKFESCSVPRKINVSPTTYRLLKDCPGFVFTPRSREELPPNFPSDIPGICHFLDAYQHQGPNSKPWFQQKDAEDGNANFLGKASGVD
T1 sequence (P20595 1-619): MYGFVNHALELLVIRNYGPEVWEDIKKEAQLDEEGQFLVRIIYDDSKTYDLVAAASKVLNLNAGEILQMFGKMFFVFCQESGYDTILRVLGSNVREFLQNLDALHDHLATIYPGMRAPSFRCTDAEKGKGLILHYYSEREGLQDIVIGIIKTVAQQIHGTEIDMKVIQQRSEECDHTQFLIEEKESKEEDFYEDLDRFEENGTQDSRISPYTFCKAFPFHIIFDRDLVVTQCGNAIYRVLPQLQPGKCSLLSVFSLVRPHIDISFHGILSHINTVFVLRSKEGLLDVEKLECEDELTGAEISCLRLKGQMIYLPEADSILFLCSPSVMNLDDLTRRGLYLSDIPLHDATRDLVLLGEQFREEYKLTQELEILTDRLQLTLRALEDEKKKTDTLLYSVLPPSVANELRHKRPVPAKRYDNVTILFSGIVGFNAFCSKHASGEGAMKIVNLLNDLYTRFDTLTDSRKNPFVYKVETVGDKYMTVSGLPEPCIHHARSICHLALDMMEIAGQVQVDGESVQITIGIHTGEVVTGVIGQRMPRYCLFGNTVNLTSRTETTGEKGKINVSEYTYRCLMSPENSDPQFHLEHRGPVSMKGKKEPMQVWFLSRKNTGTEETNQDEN
Nature of the data set: Effect on a recombinant guanylate cyclase reporter cell line (B-2). To be noted: in some cases mean values for individual determinations. In kind it is cell-based. As for the experimental part: B-2. Effect on a Recombinant Guanylate Cyclase Reporter Cell Line
The cellular effect of the inventive compounds is determined using a recombinant guanylate cyclase reporter cell line, as described in F. Wunder et al., Anal. Biochem. 339, 104-112 (2005).
Representative MEC values (MEC=minimum effective concentration) for the inventive compounds are shown in the table below (in some cases as mean values for individual determinations): […]

The nature of data set [2]: Pharmacokinetic parameters following intravenous administration in rats (B-6). In kind it is in vivo, male Wistar rats. To be noted: for MRT / half-life: male, Wistar, rat, plasma; for MRT: mean residence time; for half-life: terminal half-life. From the text:
• Klaus Witte, Kai Hu, Johanna Swiatek, Claudia Müssig, Georg Ertl and Bjorn Lemmer: Experimental heart failure in rats: effects on cardiovascular circadian rhythms and on myocardial β-adrenergic signaling. Cardiovasc Res 47 (2): […], 2000; Kozo Okamoto: Spontaneous hypertension in rats. Int Rev Exp Pathol 7: 227-270, 1969; Maarten van den Buuse: Circadian Rhythms of Blood Pressure, Heart Rate, and Locomotor Activity in Spontaneously Hypertensive Rats as Measured With Radio-Telemetry. Physiology & Behavior 55(4): 783-787, 1994 B-6. Determination of Pharmacokinetic Parameters Following Intravenous and Oral Administration
The pharmacokinetic parameters of the inventive compounds are determined in male CD-1 mice, male Wistar rats and female beagles. Intravenous administration in the case of mice and rats is effected by means of a species-specific plasma/DMSO formulation, and in the case of dogs by means of a water/PEG400/ethanol formulation. In all species, oral administration of the dissolved substance is performed via gavage, based on a water/PEG400/ethanol formulation. The removal of blood from rats is simplified by inserting a silicone catheter into the right Vena jugularis externa prior to substance administration. The operation is effected at least one day prior to the experiment with isofluran anaesthesia and administration of an analgesic (atropine/rimadyl (3/1) 0.1 ml s.c.). The blood is taken (generally more than 10 time points) within a time window including terminal time points of at least 24 to a maximum of 72 hours after substance administration. The blood is removed into heparinized tubes. The blood plasma is then obtained by centrifugation; if required, it can be stored at −20° C. until further processing.
An internal standard (which may also be a chemically unrelated substance) is added to the samples of the inventive compounds, calibration samples and qualifiers, and there follows protein precipitation by means of acetonitrile in excess. Addition of a buffer solution matched to the LC conditions, and subsequent vortexing, is followed by centrifugation at 1000 g. The supernatant is analysed by means of LC-MS/MS using C18 reversed-phase columns and variable mobile phase mixtures. The substances are quantified via the peak heights or areas from extracted ion chromatograms of specific selected ion monitoring experiments.
The plasma concentration/time plots determined are used to calculate the pharmacokinetic parameters such as AUC, Cmax, t1/2 (terminal half-life), F (bioavailability), MRT (mean residence time) and CL (clearance), by means of a validated pharmacokinetic calculation program.
Since the substance quantification is performed in plasma, it is necessary to determine the blood/plasma distribution of the substance in order to be able to adjust the pharmacokinetic parameters correspondingly. For this purpose, a defined amount of substance is incubated in heparinized whole blood of the species in question in a rocking roller mixer for 20 min. After centrifugation at 1000 g, the plasma concentration is measured (by means of LC-MS/MS; see above) and determined by calculating the ratio of the Cblood/Cplasma value.

A word on the MRT: it is a mean duration of stay, worked out from the concentration-time curve. In general, half-life refers to the time in which the quantity being followed falls by half.

Regarding `Cc1cc(OCc2c(F)ccc(F)c2F)n2nc(C3CC3)c(C(=O)NCC(C)(N)CCC(F)(F)F)c2c1` (single isomer, unassigned; enantiomer b) [Example 170, ent-N-(2-Amino-5,5,5-trifluoro-2-methylpentyl)-2-cyclopropyl-5-methyl-7-[(2,3,6-trifluorobenzyl)oxy]pyrazolo[1,5-a]pyridine-3-carboxamide (Enantiomer B)], the “MEC (minimum effective concentration)” value in data set [1] stood at 0.1 µM. In data set [2], this molecule had an AUCnormal of 0.32 kg·h/L, a CLblood of 48.7 mL/min/kg, an MRT of 3.4 h and a half-life of 2.6 h.
Consider `CCCC(C)(N)CNC(=O)c1c(C)nn2c(OCc3c(F)cccc3F)cc(C)cc12` (single isomer, unassigned) [Example 39, ent-N-(2-Amino-2-methylpentyl)-7-[(2,6-difluorobenzyl)oxy]-2,5-dimethylpyrazolo[1,5-a]pyridine-3-carboxamide], for which the “MEC (minimum effective concentration)” value in data set [1] stood at 0.3 µM. In data set [2], this molecule showed an AUCnormal of 0.53 kg·h/L, a CLblood of 41 mL/min/kg, a mean residence time MRT of 7.8 h and a half-life of 6.2 h.
For `CCCC(C)(N)CNC(=O)c1c(C2CC2)nn2c(OCc3c(F)ccc(F)c3F)cc(C)cc12` (single isomer, unassigned; enantiomer b) [Example 169, ent-N-(2-Amino-2-methylpentyl)-2-cyclopropyl-5-methyl-7-[(2,3,6-trifluorobenzyl)oxy]pyrazolo[1,5-a]pyridine-3-carboxamide (Enantiomer B)], in data set [1], the “MEC (minimum effective concentration)” value worked out at 0.2 µM. In data set [2], this molecule gave an AUCnormal of 0.44 kg·h/L, a CLblood of 36.8 mL/min/kg, a mean residence time MRT of 4.9 h and a half-life of 4 h.
For `CCCC(C)(N)CNC(=O)c1c(C2CC2)nn2c(OCc3c(F)cccc3F)cc(C)cc12` (single isomer, unassigned) [Example 55, ent-N-(2-Amino-2-methylpentyl)-2-cyclopropyl-7-[(2,6-difluorobenzyl)oxy]-5-methylpyrazolo[1,5-a]pyridine-3-carboxamide] the same measures were 0.1 µM, 0.37 kg·h/L, 46 mL/min/kg, 3.5 h and 2.6 h.
For `Cc1cc(OCc2c(F)cccc2F)n2nc(C)c(C(=O)NCC(C)(N)CCC(F)(F)F)c2c1` (single isomer, unassigned) [Example 43, ent-N-(2-Amino-5,5,5-trifluoro-2-methylpentyl)-7-[(2,6-difluorobenzyl)oxy]-2,5-dimethylpyrazolo[1,5-a]pyridine-3-carboxamide] the same measures were 0.1 µM, 0.49 kg·h/L, 42.7 mL/min/kg, 7.4 h and 5.9 h.
Turning to `Cc1cc(OCc2c(F)ccc(F)c2F)n2nc(C)c(C(=O)NCC(C)(N)CCC(F)(F)F)c2c1` (single isomer, unassigned; enantiomer b) [Example 168, ent-N-(2-Amino-5,5,5-trifluoro-2-methylpentyl)-2,5-dimethyl-7-[(2,3,6-trifluorobenzyl)oxy]pyrazolo[1,5-a]pyridine-3-carboxamide (Enantiomer B)], in data set [1], the “MEC (minimum effective concentration)” value was found to be 0.1 µM. Besides, in data set [2], the AUCnormal turned out to be 0.45 kg·h/L, the CLblood was determined as 36.5 mL/min/kg, the MRT was found to be 4.3 h and the half-life is 3.2 h.
On to `Cc1cc(OCc2c(F)ccc(F)c2F)n2nc(C)c(C(=O)NCC3(O)CC3)c2c1` [Example 25, N-[(1-Hydroxycyclopropyl)methyl]-2,5-dimethyl-7-[(2,3,6-trifluorobenzyl)oxy]pyrazolo[1,5-a]pyridine-3-carboxamide], for which the “MEC (minimum effective concentration)” value in data set [1] turned out to be 0.3 µM.
